Measurements: patent publication US6083922A (priority 1997, dated 2000)
Converted amounts (≈) assume the structure as drawn. “And” between values parts separate entries of the source, which are not always exact repeats. Equal entries are not always repeated. Where two headings read alike, the source gives them in different places.

Key:
[1] = test system: M. tuberculosis H37Rv(lux); assay: Killing curve assay; type: cell-based, Mycobacterium tuberculosis
[2] = test system: Drug-Sensitive Strains of M. tuberculosis; assay: microbe, parasite or virus in culture; type: cell-based; details: Mycobacterium tuberculosis
[3] = clinical; type: in vivo, human; details: for Sputum Tobramycin Concentrations: individual subjects, 300 mg in 5 mL 1/4 NS
Experimental: (§1) The doses were separated by at least 2 days and not more than 5 days. Peak serum and sputum concentrations were assessed and results are seen in Tables 10 and 11.

[4] = Comparative characteristics of nebulizers delivering tobramycin
Description: Both ultrasonic and jet nebulizers were studied.
An in vitro comparative study evaluated a variety of commercially available jet nebulizers, including among others, the Acorn II® by Marquest, T-Updraft® by Hudson, Sidestream® by Medicaid, and Pari LC® by Pari. The PulmoAide® compressor was chosen because of its reliability and widespread use.

[5] = cited from earlier work
[6] = Serum tobramycin concentrations following aerosol administration (Example 5); type: in vivo, human; details: for Serum Tobramycin: individual subjects
Experimental: as §1

[7] = Ultrasonic nebulizer delivery of tobramycin, effect of saline dilution (Example 2); details: for aerosolized output of tobramycin, MEAN: UltraAire, 60 mg/mL, 5 mL, 10 minutes
Experimental: This example describes testing performed to determine the effect of normal and quarter strength diluted saline on the aerosolization of tobramycin and on the amount of drug delivered over a ten-minute period.
To test output from a hand-held portable ultrasonic nebulizer, an UltraAirs by Omron was used. This ultrasonic nebulizer has a reusable medication cup that is placed over the ultrasonic crystal. […] After 10 minutes nebulization run, the cups were reweighed. The aerosolized output of tobramycin was determined from the difference between weight before and after the nebulization. Each solute was tested 14 times.

[8] = test system: P. aeruginosa; details: aerosolized 600 mg tid, cited from earlier work
[9] = type: physicochemical
[10] = Randomized cross-over study of nebulizers, peak sputum tobramycin
Description: A randomized, cross-over study compared the ability of several nebulizers to deliver tobramycin by measuring peak sputum tobramycin concentrations in samples collected ten minutes after completion of the aerosol dose.

[11] = test system: M. tuberculosis; assay: Minimal inhibitory / bactericidal concentration of tobramycin, general statements; design: species or system Mycobacterium tuberculosis
[12] = FEV1 change following aerosol administration (Example 5); type: in vivo, human; details: individual subjects, 300 mg, 30 min from completion

## NNC(=O)c1ccncc1 [isoniazid]
[1]; FIG. 4
  persistence of bactericidal activity: only temporary
[1]; isoniazid 0.06 μg/mL
  day growth of the bacteria resumed: 4 days
  day of initial sharp killing: 4 days
[1]; isoniazid 0.25 μg/mL
  day growth of the bacteria resumed: 7 days
  day of initial sharp killing: 1 days

## NC[C@H]1O[C@H](O[C@H]2[C@H](O)[C@@H](O[C@H]3O[C@H](CO)[C@@H](O)[C@H](N)[C@H]3O)[C@H](N)C[C@@H]2N)[C@H](N)C[C@@H]1O [tobramycin]
[1]; 4 μg/mL
  time for which growth is prevented: about eight
[1]; 8 μg/mL
  day at which growth is seen to be inhibited: 7 days
[1]; 16 μg/mL
  day at which 2-log reduction is reached: four
[1]; 1-2 μg/mL
  bactericidal activity compared to growth control: bactericidal activity decreasing the count of M. tuberculosis
[1]; 8 and 16 μg/mL
  reduction of M. tuberculosis counts in vitro: more than 2 log
[1]; FIG. 4
  activity against M. tuberculosis H37Rv in vitro: potent activity
  persistence of bactericidal activity: continuous decrease and inhibition of M. tuberculosis growth
[1]; tobramycin 8 and 16 μg/mL, decreased from 10^6
  count of Mycobacterium tuberculosis after treatment: about 10^2 CFU
[2]; H37RV, read-out: Tobramycin MIC, strain H37RV
  MIC: 4 µg/mL (≈ 8.56 µM)
[2]; all tested drug sensitive strains, read-out: minimal inhibitory concentration
  MIC: 4 to 8 µg/mL (≈ 8.56 to 17.1 µM)
[2]; read-out: Tobramycin MIC, strain TN675
  MIC: 4 µg/mL (≈ 8.56 µM)
[2]; read-out: Tobramycin MIC, strain TN994
  MIC: 4 µg/mL (≈ 8.56 µM)
[2]; read-out: Tobramycin MIC, strain TN1008
  MIC: 4 µg/mL (≈ 8.56 µM)
[2]; read-out: Tobramycin MIC, strain TN1039
  MIC: 4 µg/mL (≈ 8.56 µM)
[2]; read-out: Tobramycin MIC, strain TN2351
  MIC: 8 µg/mL (≈ 17.1 µM)
[2]; read-out: Tobramycin MIC, strain TN2524
  MIC: 4 µg/mL (≈ 8.56 µM)
[2]; read-out: Tobramycin MIC, strain TN3183
  MIC: 4 µg/mL (≈ 8.56 µM)
[2]; read-out: Tobramycin MIC, strain TN3979
  MIC: 4 µg/mL (≈ 8.56 µM)
[2]; read-out: Tobramycin MIC, strain TN4259
  MIC: 4 µg/mL (≈ 8.56 µM)
[3]; human, sputum, inhaled or intranasal, mean, Pari LC, 300 mg, 10 min
  concentration at 10 min: 396000 ± 677000 ng/g
[3]; Pari LC, 10 min from completion, 10 min
  Sputum Tobramycin Concentrations: 1595.9 μg/gm and 764.2 μg/gm and 133.7 μg/gm and 166.5 μg/gm and 1395.6 μg/gm
[3]; Pari LC, 1 hour, 60 min
  Sputum Tobramycin Concentrations: 481.8 μg/gm and 231.8 μg/gm and 110.7 μg/gm and 32.4 μg/gm and 186.8 μg/gm
[3]; Pari LC, 2 hours, 120 min
  Sputum Tobramycin Concentrations: 416.8 μg/gm and 52.8 μg/gm and 92.5 μg/gm and 60.5 μg/gm and 131.8 μg/gm
[3]; Pari LC, baseline
  Sputum Tobramycin Concentrations: bql (<20 μg/gm)
[3]; Sidestream, 10 min from completion, 10 min
  Sputum Tobramycin Concentrations: 792.8 μg/gm and 460.6 μg/gm and 162.5 μg/gm and 84.2 μg/gm and 1135.9 μg/gm
[3]; Sidestream, 1 hour, 60 min
  Sputum Tobramycin Concentrations: 1026.7 μg/gm and 23.1 μg/gm and 180.5 μg/gm and 36.6 μg/gm and 488.2 μg/gm
[3]; Sidestream, 2 hours, 120 min
  Sputum Tobramycin Concentrations: 163 μg/gm and 49.1 μg/gm and 58.1 μg/gm and 57.5 μg/gm and 331.5 μg/gm
[3]; Sidestream, baseline
  Sputum Tobramycin Concentrations: bql (<20 μg/gm) and bqi
[3]; mean, Pari LC, 300 mg, 1 hour
  Sputum Tobramycin Concentrations, Mean/Std Dev: 186.8 μg/gm
[3]; mean, Pari LC, 300 mg, 2 hours
  Sputum Tobramycin Concentrations, Mean/Std Dev: 131.8 μg/gm
[3]; mean, Pari LC, baseline
  Sputum Tobramycin Concentrations, Mean/Std Dev: bql (<20 μg/gm)
[3]; mean, Sidestream, 300 mg, 10 min
  Sputum Tobramycin Concentrations, Mean/Std Dev: 527.21 ± 585.9 μg/gm
[3]; mean, Sidestream, 300 mg, 1 hour
  Sputum Tobramycin Concentrations, Mean/Std Dev: 488.2 μg/gm
[3]; mean, Sidestream, 300 mg, 2 hours
  Sputum Tobramycin Concentrations, Mean/Std Dev: 331.5 μg/gm
[3]; mean, Sidestream, baseline
  Sputum Tobramycin Concentrations, Mean/Std Dev: bql (<20 μg/gm)
[4]; DeVilbiss 99, 20 mg/mL in 1/2 NS
  MMAD: 4-5 microns
[4]; DeVilbiss 99, 20 mg/mL in 1/2 NS, 30 mL
  Time to Nebulize: 10 to 12 min
[4]; DeVilbiss 99, 20 mg/mL in 1/2 NS, total dose 600 mg
  Drug Dose/mL: 33 ± 1.8 mg
[4]; DeVilbiss 99, 600 mg
  tobramycin delivered: 33 mg/mL
[4]; Pari LC
  particle size: 4.5 μ
[4]; Pari LC Plus
  particle sizes: 3.3 μ
[4]; Pari LC, 60 mg/mL in 1/4 NS
  MMAD: 4-5 microns
[4]; Pari LC, 60 mg/mL in 1/4 NS, 5 mL
  Time to Nebulize: 10 min
[4]; Pari LC, 60 mg/mL in 1/4 NS, total dose 300 mg
  Drug Dose/mL: 29 ± 5 mg
[4]; Sidestream
  particle size output: 2.2 μ
[4]; Sidestream, 60 mg/mL in 1/4 NS
  MMAD: ~ 2.2 microns
[4]; Sidestream, 60 mg/mL in 1/4 NS, 5 mL, time to sputtering of jet
  Time to Nebulize: ~ 13 minutes
[4]; Sidestream, 60 mg/mL in 1/4 NS, total dose 300 mg
  Drug Dose/mL: 30 ± 1.8 mg
[4]; all three nebulizers
  tobramycin delivered to the airways: about 30 mg/mL
[5]
  maximum safe concentration in the serum: 8 to 10 µg/mL
  recommended peak therapeutic serum concentrations: 8 to 10 µg/mL
[6]; 300 mg aerosol, because of serum concentrations
  safety of the dosage: extremely safe
[6]; 300 mg in 5 mL of 60 mg/mL in 1/4 NS
  serum concentrations: < 1600 ng/mL
[6]; Pari LC, 300 mg in 5 mL 1/4 NS, 1 hour from completion, 60 min
  Serum Tobramycin: 0.2 µg/mL and 0.5 µg/mL and 0.6 µg/mL and 0.8 µg/mL
[6]; Pari LC, 300 mg in 5 mL 1/4 NS, 2 hours from completion, 120 min
  Serum Tobramycin: 0.3 µg/mL and 0.4 µg/mL and 0.5 µg/mL and 0.7 µg/mL
[6]; Pari LC, 300 mg, baseline
  Serum Tobramycin: not detected
[6]; Sidestream, 300 mg in 5 mL 1/4 NS, 1 hour from completion, 60 min
  Serum Tobramycin: 0.3 µg/mL and 0.2 µg/mL and 0.9 µg/mL and 1.2 µg/mL and 1.6 µg/mL
[6]; Sidestream, 300 mg in 5 mL 1/4 NS, 2 hours from completion, 120 min
  Serum Tobramycin: 0.2 µg/mL and 0.8 µg/mL and 1.0 µg/mL
[6]; Sidestream, 300 mg, baseline
  Serum Tobramycin: not detected
[7]; 1/4 diluted saline versus full strength nondiluted saline
  amount of tobramycin delivered: Higher amount of tobramycin was delivered
[7]; diluted 0.22% NS
  aerosolized output of tobramycin, MEAN: 4.071
[7]; nondiluted 0.9% NS
  aerosolized output of tobramycin, MEAN: 3.636
[8]; 71 CF patients
  spirometry: improved spirometry
  sputum density of P. aeruginosa: significant reduction in sputum density of P. aeruginosa
[8]
  safety and efficacy in CF patients: both safe and efficacious
[9]; 60 mg/mL, 40° C., pH 7.0, after 35 days
  color of the solution: yellowing of the solution
[9]; pH greater than 7.0
  degradation of tobramycin: degradation of tobramycin occurs
[10]; Pari LC, 60 mg/mL in 1/4 NS
  time to complete nebulization of all 5 mL: about ten
[10]; Pari LC, 60 mg/mL in 5 mL 1/4 NS
  mass median aerodynamic diameter: about 3.3 μm
[10]; human, in vivo, inhaled or intranasal, 300 mg
  Cmax at 10 min: ~679000 ng/g
[11]; Mycobacterium tuberculosis, in the lungs and sputum, read-out: concentration found to be bactericidal
  MBC: ≥ 8 µg/mL
[11]; Mycobacterium tuberculosis, read-out: lowest systemic minimal inhibitory concentration
  MIC: ~8 µg/mL (≈ 17.1 µM)
[11]; Mycobacterium tuberculosis, systemic administration, read-out: minimal inhibitory concentration which would need to be present in the systemic circulation
  MIC: 800 to 1000 µg/mL (≈ 1710 to 2140 µM)
[11]; toward M. tuberculosis
  sputum concentrations providing bactericidal activity, in multiples of MIC: 10-100 times MIC
[12]; Pari LC
  ± % change FEV1: -1.2% and 1.2% and -0.6% and -2% and -5%
[12]; Sidestream
  ± % change FEV1: -2.2% and 0.0% and -7.6% and -1%
